The values below come from patent US8030043B2, “β-galactoside-α2,3-sialyltransferase, a gene encoding thereof, and a method for producing thereof” (Japan Tobacco Inc., priority 2005, dated 2011).

For assay [1], the system named is ISH224-N1C0 recombinant β-galactoside-α2,3-sialyltransferase. Nature of the assay: Acceptor substrate specificity of recombinant β-galactoside-α2,3-sialyltransferase (mono-, di-, trisaccharides). The assay is classed as biochemical, Photobacterium sp. The source says: (§1) Cell homogenates prepared from E. coli cells introduced with the third clone of ISH467-N2C0, the first clone of ISH224-N1C0 and the first clone of FAJ-N1C0 were each purified by ion exchange chromatography and hydroxyapatite chromatography to give an electrophoretically single band. The thus purified β-galactoside-α2,3-sialyltransferases were used in the following experiment in order to examine the presence or absence of sialyltransferase activity toward various monosaccharides, disaccharides and trisaccharides.
(§2) A reaction solution (24 μl) was prepared to contain CMP-^14C-NeuAc-containing CMP-NeuAc as a glycosyl donor substrate ([…], final concentration in the reaction solution: […]), any of various glycosyl acceptor substrates dissolved in 20 mM cacodylate buffer (pH 5.0) (1 μmol, final concentration in the reaction solution: 42 mM), sialyltransferase (in an amount as indicated in the footnotes of the tables below) and NaCl (final concentration in the reaction solution: 500 mM), and reacted under conditions as indicated in the footnotes of the tables below. The monosaccharides used as glycosyl acceptor substrates were the following 10 types: methyl-α-D-galactopyranoside (Gal-α-OMe), methyl-(β-D-galactopyranoside (Gal-β-OMe), methyl-α-D-glucopyranoside (Glc-α-OMe), methyl-β-D-glucopyranoside (Glc-β-OMe), methyl-α-D-mannopyranoside (Man-α-OMe), methyl-β-D-mannopyranoside (Man-β-OMe), methyl-α-D-fucopyranoside (Fuc-α-OMe), methyl-β-D-fucopyranoside (Fuc-β-OMe), N-acetylgalactosamine (GalNAc), and N-acetylglucosamine ([…]). The disaccharides used were the following 5 types: lactose (Gal-β1,4-Glc), N-acetyllactosamine (Gal-β1,4-GlcNAc), methyl-β-D-galactopyranosyl-β1,3-N-acetylglucosaminide (Gal-β1,3-GlcNAc-β-OMe), methyl-α-D-galactopyranosyl-α1,3-galactopyranoside (Gal-α-1,3-Gal-α-OMe), and methyl-β-D-galactopyranosyl-β1,3-galactopyranoside (Gal-β1,3-Gal-β-OMe). The trisaccharide used was 2′-fucosyllactose (Fuc-α1,2-Galβ1,4-Glc). It should be noted that the final concentration was set to 8.4 mM for the sugar chains shown in Table 18, i.e., methyl-α-D-galactopyranosyl-α1,3-galactopyranoside (Gal-α1,3-Gal-α-OMe), methyl-β-D-galactopyranosyl-β1,3-galactopyranoside (Gal-β1,3-Gal-β-OMe) and 2′-fucosyllactose (Fuc-α1,2-Gal-β1,4-Glc).
(§3) After completion of the enzymatic reaction, 1.98 ml of 5 mM phosphate buffer (pH 6.8) was added to the reaction solution to stop the enzymatic reaction. Then, the enzymatic reaction solution was diluted with 5 mM phosphate buffer (pH 6.8) and applied in a volume of 2 ml to a AG1−×2 Resin (PO4^3− form, 0.2×2 cm) column. This column was prepared as follows: AG1-x 2 Resin (OH^− form, BIO-RAD) was suspended in 1 M phosphate buffer (pH 6.8), and after 30 minutes, the resin was washed with distilled water and then suspended in distilled water. The eluate (0 to 2 ml) from this column was measured for its radioactivity. The eluate from this column contains the unreacted glycosyl acceptor substrate and the ^14C-NeuAc (N-acetylneuraminic acid)-bound reaction product which was generated by the reaction, but unreacted CMP-14C-NeuAc is still retained on the column. Thus, the radioactivity of ^14C from each sialic acid-containing sugar chain generated as a result of the enzymatic reaction arises exclusively from the reaction product, so that the radioactivity of this fraction can be used to calculate the enzyme activity.
(§4) In the manner described above, the radioactivity of NeuAc transferred to each glycosyl acceptor substrate was measured to calculate the amount of transferred sialic acid.

The subject of assay [2] is ISH467-N2C0 recombinant β-galactoside-α2,3-sialyltransferase. The description is as above. The assay is classed as biochemical, Photobacterium phosphoreum.
From the text: as §1, §2, §3, §4

Assay [3] relates to FAJ-N1C0 recombinant β-galactoside-α2,3-sialyltransferase. As to the kind of experiment: Acceptor substrate specificity of recombinant β-galactoside-α2,3-sialyltransferase (mono-, disaccharides). The assay is classed as biochemical, Vibrio sp. The arrangement: FAJ-N1C0 Sialyltransferase activity Relative activity (%): tested at 42 mM. The conditions noted are these: 20° C., 14 hours; for FAJ-N1C0 Sialyltransferase activity: Table 16: 1 μmol acceptor, pH 5.0, about 2.5 mU enzyme; for FAJ-N1C0 Sialyltransferase activity Relative activity (%): Table 16: activity toward lactose set to 100.
From the text: as §1, §2, §3, §4

Setting [4] is: Table 17: 1 μmol acceptor, pH 5.0, 1.0 mU per reaction, 30° C., 0.5 minutes or 2 minutes.
[5] abbreviates: Table 17: activity toward lactose set to 100, 30° C., 0.5 minutes or 2 minutes.
Where [6] appears, read: Table 17: 1 μmol acceptor, pH 5.0, 2.3 mU per reaction, 30° C., 0.5 minutes or 2 minutes.
Where [7] appears, read: Table 16: 1 μmol acceptor, pH 5.0, about 2.5 mU enzyme, 20° C., 14 hours.
Setting [8] is: Table 16: activity toward lactose set to 100, 20° C., 14 hours.
Setting [9] is: Table 18: 0.2 μmol acceptor (8.4 mM), pH 5.0, 1.0 mU per reaction, 30° C., 2 minutes.
Where [10] appears, read: Table 18: activity toward lactose set to 100, 0.2 μmol acceptor, 30° C., 2 minutes.
The mark [11] stands for this setting: Table 18: 0.2 μmol acceptor (8.4 mM), pH 5.0, 23 mU per reaction, 30° C., 2 minutes.

Regarding `CO[C@H]1O[C@H](C)[C@H](O)[C@H](O)[C@H]1O` [Methylαfucopyranoside, methyl-α-D-fucopyranoside], in assay [1] (setting [4]), the “ISH224-N1C0 Sialyltransferase activity” value is given as 0.70 nmol/min. Also, the “ISH224-N1C0 Sialyltransferase activity Relative activity (%)” value in assay [1] (setting [5]) is reported as 68%. Moreover, in assay [2] (setting [6]), the “ISH467-N2C0 Sialyltransferase activity” value was found to be 1.13 nmol/min. Moreover, the “ISH467-N2C0 Sialyltransferase activity Relative activity (%)” value in assay [2] (setting [5]) amounted to 49%.
As for `CO[C@H]1O[C@H](CO)[C@@H](O)[C@H](O)[C@H]1O` [Methylαglucopyranoside, methyl-α-D-glucopyranoside], in assay [3], the “FAJ-N1C0 Sialyltransferase activity” value was determined as 4.7 nmol/min. Moreover, in assay [3], the “FAJ-N1C0 Sialyltransferase activity Relative activity (%)” value is on record as 62%. For the same compound, the “ISH224-N1C0 Sialyltransferase activity” value is 4.3 nmol/min in assay [1] (setting [7]) and 0.70 nmol/min in assay [1] (setting [4]). Besides, the “ISH224-N1C0 Sialyltransferase activity Relative activity (%)” value was 51% in assay [1] (setting [8]) and 68% in assay [1] (setting [5]). The “ISH467-N2C0 Sialyltransferase activity” value turned out to be 6.2 nmol/min in assay [2] (setting [7]) and 1.11 nmol/min in assay [2] (setting [6]). For the same compound, the “ISH467-N2C0 Sialyltransferase activity Relative activity (%)” value was 79% in assay [2] (setting [8]) and 48% in assay [2] (setting [5]).
Turning to `CO[C@H]1O[C@H](CO)[C@@H](O)[C@H](O)[C@@H]1O` [Methylαmannopyranoside, methyl-α-D-mannopyranoside], the “FAJ-N1C0 Sialyltransferase activity” value in assay [3] came out at 4.3 nmol/min. Further, the “FAJ-N1C0 Sialyltransferase activity Relative activity (%)” value in assay [3] is on record as 57%. Besides, the “ISH224-N1C0 Sialyltransferase activity” value in assay [1] (setting [7]) is 4.7 nmol/min; in assay [1] (setting [4]) it was 1.11 nmol/min. Moreover, the figures for the “ISH224-N1C0 Sialyltransferase activity Relative activity (%)” value in assay [1] (setting [8]) and in assay [1] (setting [5]) were 56% and 108%, respectively. Besides, the entries for the “ISH467-N2C0 Sialyltransferase activity” value in assay [2] (setting [7]) and in assay [2] (setting [6]) were 5.5 nmol/min and 1.38 nmol/min, respectively. The “ISH467-N2C0 Sialyltransferase activity Relative activity (%)” value is reported as 71% in assay [2] (setting [8]) and 60% in assay [2] (setting [5]).
On to `CO[C@@H]1O[C@H](C)[C@H](O)[C@H](O)[C@H]1O` [Methylβfucopyranoside, methyl-β-D-fucopyranoside], for which the “ISH224-N1C0 Sialyltransferase activity” value in assay [1] (setting [4]) is on record as 0.50 nmol/min. For the same compound, the “ISH224-N1C0 Sialyltransferase activity Relative activity (%)” value in assay [1] (setting [5]) is 48%. Also, in assay [2] (setting [6]), the “ISH467-N2C0 Sialyltransferase activity” value amounted to 0.97 nmol/min. In assay [2] (setting [5]), the “ISH467-N2C0 Sialyltransferase activity Relative activity (%)” value stood at 42%.
Take `CO[C@@H]1O[C@H](CO)[C@@H](O)[C@H](O)[C@H]1O` [Methylβglucopyranoside, methyl-β-D-glucopyranoside]: the “FAJ-N1C0 Sialyltransferase activity” value in assay [3] came to 4.0 nmol/min. The “FAJ-N1C0 Sialyltransferase activity Relative activity (%)” value in assay [3] came to 52%. Besides, the “ISH224-N1C0 Sialyltransferase activity” value in assay [1] (setting [7]) came out at 3.7 nmol/min; in assay [1] (setting [4]), 0.27 nmol/min. Moreover, the “ISH224-N1C0 Sialyltransferase activity Relative activity (%)” value in assay [1] (setting [8]) is on record as 43%; in assay [1] (setting [5]), 26%. Moreover, the “ISH467-N2C0 Sialyltransferase activity” value in assay [2] (setting [7]) came to 3.6 nmol/min; in assay [2] (setting [6]), 0.76 nmol/min. Also, the “ISH467-N2C0 Sialyltransferase activity Relative activity (%)” value in assay [2] (setting [8]) was 46%; in assay [2] (setting [5]) it was 33%.
Consider `CO[C@@H]1O[C@H](CO)[C@@H](O)[C@H](O)[C@@H]1O` [Methylβmannopyranoside, methyl-β-D-mannopyranoside], for which, in assay [1] (setting [4]), the “ISH224-N1C0 Sialyltransferase activity” value is 1.03 nmol/min. Moreover, the “ISH224-N1C0 Sialyltransferase activity Relative activity (%)” value in assay [1] (setting [5]) was determined as 100%. Further, the “ISH467-N2C0 Sialyltransferase activity” value in assay [2] (setting [6]) came out at 1.45 nmol/min. Also, the “ISH467-N2C0 Sialyltransferase activity Relative activity (%)” value in assay [2] (setting [5]) came out at 63%.
For `CC(=O)N[C@H]1C(O)O[C@H](CO)[C@@H](O)[C@@H]1O` (stereo partly drawn) [N-Acetylglucosamine, N-acetylglucosamine], in assay [3], the “FAJ-N1C0 Sialyltransferase activity” value came out at 4.2 nmol/min. Also, in assay [3], the “FAJ-N1C0 Sialyltransferase activity Relative activity (%)” value worked out at 55%. Also, the “ISH224-N1C0 Sialyltransferase activity” value was 5.7 nmol/min in assay [1] (setting [7]) and 0.51 nmol/min in assay [1] (setting [4]). Besides, the “ISH224-N1C0 Sialyltransferase activity Relative activity (%)” value in assay [1] (setting [8]) is recorded as 68%; in assay [1] (setting [5]), 50%. Moreover, the “ISH467-N2C0 Sialyltransferase activity” value in assay [2] (setting [7]) is listed as 5.0 nmol/min; in assay [2] (setting [6]), 0.91 nmol/min. The “ISH467-N2C0 Sialyltransferase activity Relative activity (%)” value in assay [2] (setting [8]) was 63%; in assay [2] (setting [5]), 40%.
Consider `CO[C@H]1O[C@H](CO)[C@H](O)[C@H](O[C@H]2O[C@H](CO)[C@H](O)[C@H](O)[C@H]2O)[C@H]1O` [methyl-α-D-galactopyranosyl-α1,3-galactopyranoside], for which the “ISH224-N1C0 Sialyltransferase activity” value in assay [1] (setting [9]) came out at 8.80 nmol/min. The “ISH224-N1C0 Sialyltransferase activity Relative activity (%)” value in assay [1] (setting [10]) stood at 528%. Also, the “ISH467-N2C0 Sialyltransferase activity” value in assay [2] (setting [11]) is recorded as 7.17 nmol/min. In addition, the “ISH467-N2C0 Sialyltransferase activity Relative activity (%)” value in assay [2] (setting [10]) worked out at 308%.
The like results for `CO[C@@H]1O[C@H](CO)[C@H](O)[C@H](O[C@@H]2O[C@H](CO)[C@H](O)[C@H](O)[C@H]2O)[C@H]1O` [methyl-β-D-galactopyranosyl-β1,3-galactopyranoside] were, in that order, 5.52 nmol/min, 331%, 5.17 nmol/min and 222%.
